The source of these data is paper PMC10328974, “Molecular mechanism of plasmid-borne resistance to sulfonamide antibiotics” (Nature Communications, 2023).

The target of one assay is T1, EcDHPS (Escherichia coli, UniProt P0AC13, F190W/W92F).
T1 construct: gene folP; 1-282 amino acids
T1 sequence (P0AC13 1-282 W92F/F190W): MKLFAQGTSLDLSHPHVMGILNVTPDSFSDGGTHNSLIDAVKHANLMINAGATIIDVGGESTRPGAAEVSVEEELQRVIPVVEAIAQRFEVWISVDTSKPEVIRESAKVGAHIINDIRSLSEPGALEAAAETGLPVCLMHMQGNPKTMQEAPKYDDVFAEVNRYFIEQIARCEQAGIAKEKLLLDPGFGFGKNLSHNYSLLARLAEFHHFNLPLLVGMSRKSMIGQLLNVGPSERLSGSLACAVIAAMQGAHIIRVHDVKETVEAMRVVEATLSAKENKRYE
Nature of the assay: intrinsic tryptophan fluorescence titration. The format is binding.

The next assay relates to T2, WT E. coli BW25113.
T2 construct: BW25113
Nature of the assay: microbe, parasite or virus in culture. Further details: agar dilution MIC on MHII agar, lowest concentration inhibiting bacterial growth. The conditions noted are these: Escherichia coli, BW25113, 18 h, read-out: MIC (ug/mL). As to the method:
The susceptibilities of various E. coli strains to sulfonamide antibiotics were assessed using the agar dilution method[85] with the exception that MHII agar (Sigma) plates were used, as this agar is specifically formulated to have low levels of thymine and thymidine content, both of which are known to antagonize the action of sulfonamides. Antibiotics used were: sulfamethoxazole (SMX) (Sigma-Aldrich), 50 mg/mL in DMSO; sulfadiazine (SDZ) (Sigma-Aldrich), 100 mg/mL in 1 M NaOH; sulfanilamide (SAA) (Sigma-Aldrich), 50 mg/mL in acetone; sulfisoxazole (SOZ) (TCI America) 50 mg/mL on acetone; sulfathiazole (STZ) (Sigma-Aldrich) 50 mg/mL in acetone: sulfapyridine (SPY) (Sigma-Aldrich) 40 mg/mL in 0.5 M NaOH; sulfamerazine (SMRZ) (AK Scientific), 50 mg/mL in DMSO; sulfamethazine (SMZ) (Alfa Aesar), 50 mg/mL in DMSO; sulfameter (SMT) (Sigma-Aldrich) 100 mg/mL in DMSO; sulfacetamide (SAD) (Sigma-Aldrich) 100 mg/mL in DMSO; sulfaquinoxaline (SQX) (Sigma-Aldrich), 50 mg/mL in DMSO; sulfadimethoxine (SDT) (Sigma-Aldrich), 100 mg/m: in 1 N NaOH. Freshly streaked E. coli colonies were resuspended in sterile 0.9% NaCl solution and the turbidity of the suspension adjusted to that of a McFarland Standard of 0.5 using a Sensititre Nephelometer (Thermo Fisher Scientific) calibrated to a McFarland 0.5 BaSO4 standard. The bacterial suspension was diluted 1:10 into a well of a sterile 96-well microtitre plate by pipetting 10 μL into a well containing 90 μL of sterile saline. A 48-pin replicator with 1.5 mm pins was used to deliver the final inoculum of 1 μL (~10^4 […]) onto MHII agar plates containing various concentrations of either SMX, SDZ, SAA, SOZ STZ, SPY, SMRZ, SMZ, SMT, SAD, SQX, or SDT. […] Inoculated sulfa-agar plates were incubated 37 °C for 18 h and the minimum inhibitory concentration (MIC) was determined to be the lowest concentration of drug that inhibited bacterial growth. In all instances, a drug-free control plate was included to ensure bacterial growth. The ∆folP deletion strain, which is auxotrophic for thymidine

Assay [1] deals with T3, EcDHPS (dihydropteroate synthase) (Escherichia coli, UniProt P0AC13).
T3 construct: gene folP
Nature of the assay: biochemical.

Another assay concerns the target T4, Sul3 (Escherichia coli, UniProt C0HMD9, F177G).
T4 sequence (C0HMD9 1-242 F177G): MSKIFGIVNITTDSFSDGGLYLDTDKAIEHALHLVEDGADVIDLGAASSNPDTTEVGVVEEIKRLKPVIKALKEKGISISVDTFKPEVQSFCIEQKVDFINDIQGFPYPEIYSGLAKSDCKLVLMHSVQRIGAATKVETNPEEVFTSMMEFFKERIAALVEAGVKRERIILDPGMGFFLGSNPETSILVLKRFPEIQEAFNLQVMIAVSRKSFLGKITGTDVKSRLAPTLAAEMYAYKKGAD
Nature of the assay: coupled malachite green DHPS activity assay, competition with pABA. The conditions noted are these: read-out: Sulfa (SMX) / Ki. The format is biochemical.

Values after ≈ are worked out from the molar mass of the structure shown.

For orientation: Kd means the free concentration of one partner at which half of the binding sites on the other are occupied at equilibrium, for simple one-to-one binding. A higher Kd goes with weaker binding. On EcDHPS, `Nc1nc(O)c2c(n1)NCC(COP(=O)(O)OP(=O)(O)O)=N2` [DHPP, 6-hydroxymethyl-7,8-dihydropterin pyrophosphate] showed a Kd of 8 µM. For the compound `Nc1ccc(S(N)(=O)=O)cc1` [SAA, sulfanilamide], the MIC with WT E. coli BW25113 amounted to 2050 µg/mL (≈ 11900 µM). Still for that read-out and setting: in the case of `CC(=O)NS(=O)(=O)c1ccc(N)cc1` [SAD, sulfacetamide] it was 512 µg/mL (≈ 2390 µM).

With `COc1cc(NS(=O)(=O)c2ccc(N)cc2)nc(OC)n1` [SDT, sulfadimethoxine], the MIC with WT E. coli BW25113 is 256 µg/mL (≈ 825 µM). Same read-out and setting: in the case of `Nc1ccc(S(=O)(=O)Nc2ncccn2)cc1` [SDZ, sulfadiazine] it was 32 µg/mL (≈ 128 µM); in that of `Cc1ccnc(NS(=O)(=O)c2ccc(N)cc2)n1` [SMRZ, sulfamerazine], 32 µg/mL (≈ 121 µM); in that of `COc1cnc(NS(=O)(=O)c2ccc(N)cc2)nc1` [SMT, sulfameter], 128 µg/mL (≈ 457 µM).

As to `Cc1cc(NS(=O)(=O)c2ccc(N)cc2)no1` [SMX, sulfamethoxazole], in the assay on WT E. coli BW25113, the MIC came out at 16 µg/mL (≈ 63.2 µM). The values for the Ki (in assay [1]; on Sul3) were 5.15 ± 1.1 µM and 4.16 ± 0.3 µM, respectively.

For `Cc1cc(C)nc(NS(=O)(=O)c2ccc(N)cc2)n1` [SMZ, sulfamethazine], in the assay on WT E. coli BW25113, the MIC was found to be 256 µg/mL (≈ 920 µM). In the case of `Cc1noc(NS(=O)(=O)c2ccc(N)cc2)c1C` [SOZ, sulfisoxazole], the MIC in the assay with WT E. coli BW25113 amounted to 32 µg/mL (≈ 120 µM). Turning to `Nc1ccc(S(=O)(=O)Nc2ccccn2)cc1` [SPY, sulfapyridine], the MIC in the assay with WT E. coli BW25113 was determined as 64 µg/mL (≈ 257 µM).

On to `Nc1ccc(S(=O)(=O)Nc2cnc3ccccc3n2)cc1` [SQX, sulfaquinoxaline], for which the MIC with WT E. coli BW25113 came out at 512 µg/mL (≈ 1700 µM).

Take `Nc1ccc(S(=O)(=O)Nc2nccs2)cc1` [STZ, sulfathiazole]: the MIC with WT E. coli BW25113 stood at 16 µg/mL (≈ 62.7 µM).
